Data from paper PMC9020709, “Hepcidin is potential regulator for renin activity” (PLoS ONE, 2022).
Entries after “also recorded” stand apart in the source; their conditions may differ. Where no end group is shown, it is not given here.

Experiments:
renin = assay: Renin inhibitor screening kit (fluorometric FRET, DABCYL-EDANS); format: biochemical; conditions: for Mean inhibitory effect on renin activity: 5 min pre-incubation at 37°C, read every 60 s for 60 min at 37°C, ex/em 328/552 nm; for Renin inhibition (in words): 10, 100 and 500 nM, in vitro, 37°C
Method: (§1) Activity measurements for all three enzymes (renin, ACE1 and ACE2) were carried out using commercial inhibition kits following manufacturer’s instructions. Screening kits were purchased from Biovision (Biovision, Inc. San Francisco, CA). Candidate inhibitors used were human hepcidin-25/LEAP-1 (disulfide bonds between Cys7–Cys23, Cys10–Cys13, Cys11–Cys19, and Cys14–Cys22, purity assessed by HPLC ≥ 98.0%) purchased from Peptides International (Peptides International Inc, Louisville, KY) as well as N-terminal part of hepcidin, Asp-Thr-His-Phe-Pro (hepcidin-5) synthetized by Proteogenix (Schiltigheim, France).
All kits included the enzyme, substrate, and enzyme inhibitor as negative control. The fluorophore labelled substate was cleaved by the enzyme. The used fluorophores were a synthetic o-aminobenzoyl peptide for ACE1, 7-Methoxycoumarin-4-acetic acid (MCA) for ACE2 and 5-((2-Aminoethyl)amino)naphthalene-1-sulfonic acid (EDANS) for renin. DABCYL-EDANS is well-known FRET pair where fluorescence is quenched when peptide is uncleaved. Fluorescence signal is increased after peptide is cleaved and EDANS molecule is free in the solution. The fluorescence intensity was recorded and calculated as follows. According to renin inhibitor screening kit instructions hepcidin-25 and hepcidin-5 were first pipetted to a black ForteBio’s 96-well plate. Renin enzyme solution was added and mixed. Both candidate inhibitors were measured with final sample concentrations of 10 nM, 100 nM and 500 nM. The plate was incubated for 5 min at 37°C. Finally, substrate solution was added into each well. Fluorescence measurement was performed using Perkin Elmer UV/VIS Envision multimode plate reader. Excitation and emission wavelengths were 328 and 552 nm, respectively. Fluorescence was recorded every 60 s for 60 min at 37°C. Inhibitory activity of renin was calculated as follows: Renininhibitoryactivity(%)=1−Activitywithsample/Activitywithoutsamplex100 where “Activity with sample” is the slope calculated from the linear range of the fluorescence plot at the presence of candidate inhibitor. Activity without the sample represents the slope without any sample in the well.
Mean enzyme inhibitory activities with the standard error of means were calculated at different concentrations. Data analysis was performed using Microsoft Office 365 ProPlus Excel version 1902 for Windows. The hepcidin–renin binding data was treated as follows: Background was subtracted, and the data was normalised to allow comparison between experiments. The normalised data was analysed with […] regression analysis in GraphPad Prism 5.02 (GraphPad Software, La Jolla, CA) assuming one-site specific binding.

[1] = test system: angiotensin-converting enzyme 1 (ACE1); assay: ACE1 inhibition screening kit (fluorometric); format: biochemical
Method: as §1
(§2) All kits included the enzyme, substrate, and enzyme inhibitor as negative control. […] DABCYL-EDANS is well-known FRET pair where fluorescence is quenched when peptide is uncleaved. Fluorescence signal is increased after peptide is cleaved and EDANS molecule is free in the solution. The fluorescence intensity was recorded and calculated as follows. […] Both candidate inhibitors were measured with final sample concentrations of 10 nM, 100 nM and 500 nM. […] Fluorescence measurement was performed using Perkin Elmer UV/VIS Envision multimode plate reader. […] Fluorescence was recorded every 60 s for 60 min at 37°C. […]
Briefly, ACE1 enzyme solution was added to a 96-well plate and each diluted candidate enzyme inhibitors were added. […] Fluorescence was recorded every 60s for 100 min at 37°C. […]

human renin = assay: Bio-layer interferometry, hepcidin-renin binding; conditions: biotinylated renin on sensors; analyte 12.5-100 μM; ForteBio Octet RED384, PBS pH 7.2 and 150 mM NaCl, 27°C; association 0–1200 s, dissociation 1200–2000 s
Method: Human prorenin coding gene was ordered from GeneArt in pcDNA3.1(+) as fusion protein with a C-terminal His-tag. The pcDNA3.1 vector confers ampicillin resistance. Plasmid was dissolved in 50 μl of TE-EF and the amount of 100 ng was transferred into Escherichia coli TOP10 cells (Invitrogen, UK) with the heat shock method (30 s). In the next day colonies were picked for midiprep isolation. A single colony was picked and cultured in 5 ml media supplemented with 100 μg/ml ampicillin and 5 mM glucose for 7 hours after which it is moved to 200 ml LB media, which included ampicillin and glucose, and grown overnight at 37°C 220 rpm. The plasmid DNA was isolated using Nucleobond Xtra Midi Plus EF Kit (Macherey-Nagel, #7404220). Plasmid DNA produced was endotoxin-free. Human prorenin was then produced in ExpiCHO cells.
Cell pellet was re-suspended in 20 ml buffer (50 mM Hepes, 200 mM NaCl, 10% Glycerol, 1 mM TCEP, pH 7.5) and protease inhibitor tablet was added. Cell lysis was made with sonicator (1 min, 50%, 2 sec on/5 sec off cycle). […]
Biotinylation of renin was done using NHS-PEG4-Biotin (ThermoFisher Scientific) at 1:1 molar ratio. […] Concentration of biotinylated protein was measured using NanoDrop™ One Uv-Vis spectrophotometer (ThermoFisher Scientific). […]
(§3) Mean enzyme inhibitory activities with the standard error of means were calculated at different concentrations. […]

[2] = test system: angiotensin-converting enzyme 2 (ACE2); assay: ACE2 inhibition screening kit (fluorometric); format: biochemical; conditions: 10, 100 and 500 nM; 15 min pre-incubation at room temperature, read every 60 s for 60 min, ex/em 320/420 nm; n = 3-6-4 (hepcidin-25), 3-6-3 (hepcidin-5)
Method: as §1
as §2, with “control. The fluorophore labelled substate was cleaved by the enzyme.” for “control.”
as §3

Row | ACE1 inhibitory activity (strongest) ([1]; 500 nM, 15 min pre-incubation at 37°C, read every 60 s for 100 min at 37°C, ex/em 330/430 nm, n = 6) [%] | Binding to renin (association and dissociation curves, in words) (human renin) | ACE2 inhibition (in words) [2] | Substance | Mean inhibitory effect on renin activity (renin; 10 nM peptide, n = 2) [%] | Mean inhibitory effect on renin activity (renin; 100 nM peptide, n = 3) [%] | Mean inhibitory effect on renin activity (renin; 500 nM peptide, n = 3) [%] | Renin inhibition (in words) (renin) | ACE1 inhibition (in words) ([1]; 10, 100 and 500 nM, 37°C, n = 5-6-1 for hepcidin-25)
1 | 34.8 |  |  | Asp-Thr-His-Phe-Pro [hepcidin-5, N-terminal part of hepcidin, synthetized by Proteogenix] | 50.1 | 50.0 | 58.6 | stronger effect on renin than hepcidin-25 | 
2 |  | cannot bind to renin |  | hepcidin-20: control peptide, purchased from Pepnet; truncated isoform without N-terminal hepcidin-5 (ICIFCCGCCHRSKCGMCCKT; ends and bridges not checked; cysteine pairing not given here; UniProt P81172 65-84, looked up) |  |  |  |  | 
3 |  | concentration dependent | not inhibited remarkably | hepcidin-25: human hepcidin-25/LEAP-1 (disulfide bonds between Cys7–Cys23, Cys10–Cys13, Cys11–Cys19, and Cys14–Cys22), purchased from Peptides International | 20.4 | 29.2 | 38.3 | has an inhibitory effect on renin in vitro; also recorded: can bind to renin enzyme and inhibit its activity in vitro; also recorded: can bind to the active site of renin and inhibit its activity in vitro | not inhibited remarkably; also recorded: low inhibitory activity
